Results published in US20240036032A1, “PREDICTIVE IN VITRO ASSAY MIMICKING IN VIVO PHARMACOLOGY” (MIMI-Q GMBH, priority 2020, published 2024).
Read-outs that look alike come from different tables or passages of the source. Marks after values point to notes of the source that are not given here. One block for each molecule: values may come before it.

Key:
[1] = Clinical pharmacokinetics parameters of mFOLFOX6 active substances from published data; type: in vivo, Humans; conditions: 5-fluorouracil bolus, sequence number 2, calculated to a dose of 400 mg/m^2 assuming linear kinetics
Experimental: Pharmacokinetics parameters for all substances presented in Table 3 were identified based on published data. Substances of administration 1 (Oxaliplatin) and 2 (5-Fluorouracil) present simultaneously in the body, so time point of addition of 2 (5-Fluorouracil) was selected in a timeframe of selected incubation time for 1 (Oxaliplatin). Substances of administration 2 (5-Fluorouracil) and 3 (5-Fluorouracil) also present simultaneously in the body, so time point of addition of 3 (5-Fluorouracil) was selected in a timeframe of selected duration of exposure for 2 (5-Fluorouracil).

[2] = test system: colon cancer organoids; experiment: Half growth inhibitory concentration (GI50): serial dilutions, 72 hours, MTS assay; type: cell-based, human (patient)
Experimental: A patient was diagnosed with colon cancer and mFOLFOX6 chemotherapeutic treatment was prescribed. To obtain primary organoid culture of colon cancer cells a sample of resected lung metastasis was used. Tissue was cut into small fragments and placed immediately into MACS tissue storage solution (Miltenyi Biotec, Germany) and stored for no more than 24 hours at 4° C. Then, the tissue fragments were transferred to a tube for tissue homogenization gentleMACS C Tube (Miltenyi Biotec, Germany) and enzyme cocktail from Tumor Dissociation Kit human (Miltenyi Biotec, Germany) consisting of 2.2 ml of DMEM/F-12 culture medium (Thermo Fisher Scientific, USA), 100 μl of Enzyme H solution (Miltenyi Biotec, Germany), 50 μl of Enzyme R solution (Miltenyi Biotec, Germany) and 12.5 μl of Enzyme A solution (Miltenyi Biotec, Germany) was added to the same tube. Then the tube was tightly closed with a lid and placed in gentleMACS Octo Dissociator (Miltenyi Biotec, Germany). For tissue dissociation, the “37C_h_TDK_3” program was used. […]
Organoids were diluted in Matrigel Growth Factor Reduced (GFR) Basement Membrane Matrix (Corning, USA) and seeded into 96-well plate (TPP, Switzerland). […] Relative number of cells was measured with MTS assay CellTiter 96 Aqueous One Solution Cell Proliferation Assay kit (Promega, USA) according to the manufacturer's instructions (FIG. 2). […]

[3] = cited from earlier work
[4] = NCI Database; cited from earlier work
[5] = test system: chemo-resistant metastatic CRC; conditions: absence of genetic selection; cited from earlier work
[6] = 5-fluorouracil continuous infusion, sequence number 3
[7] = oxaliplatin infusion, mFOLFOX6, sequence number 1

- Area under curve [1]: 82.1* μM·
- Cmax ([1]; human, in vivo, intravenous, 400 mg/m2): 273 µM
- sensitivity of organoids judged from GI50 ([2]; Example 3, FIG. 3b): sensitive
- GI50 ([2]; Homo sapiens, Example 3, organoids from resected lung metastasis, 72 hours incubation): 2260 nM
Molecule: O=c1[nH]cc(F)c(=O)[nH]1 [5-Fluorouracil, 5-fluorouracil]
- Area under curve [3, 6]: 156.4 µM
- Cmax [3, 6]: 5.5 µM

Molecule: Nc1nc2c(c(=O)[nH]1)N(C=O)C(CNc1ccc(C(=O)N[C@@H](CCC(=O)O)C(=O)O)cc1)CN2 (stereo partly shown) [Leucovorin, Leucovorin Calcium (Folinic Acid)]
- direct cytotoxic or cytostatic effect [4]: does not possess direct cytotoxic or cytostatic effect

Molecule: O=C1[O][Pt]2([NH][C@@H]3CCCC[C@H]3[NH]2)[O]C1=O [Oxaliplatin]
- Area under curve [3, 7]: 6.8 µM
- Cmax [3, 7]: 3.6 µM

Molecule: panitumumab: anti-EGFR therapy drug
- patients responding to anti-EGFR therapy [5]: 10%
